According to ChEMBL document CHEMBL2062441, “An Orally Available 3-Ethoxybenzisoxazole Capsid Binder with Clinical Activity against Human Rhinovirus” (ACS Med Chem Lett, 2012):
≈ marks a conversion by molar mass, not a printed value. Each block holds one molecule with its values, some of them ahead of it.

Tests used:
Human rhinovirus sp. [1] = test: Antirhinoviral activity against Human rhinovirus 14 infected in human HeLa cells assessed as inhibition of virus-induced cytopathic effect after 5 days by MTT assay; format: functional, organism-based; conditions: Human rhinovirus sp., 14, HeLa, 120 h
rhinovirus A2 = test: Antirhinoviral activity against Human rhinovirus 2 infected in human HeLa cells assessed as inhibition of virus-induced cytopathic effect after 5 days by MTT assay; format: functional, organism-based; conditions: Rhinovirus A, 120 h
Human rhinovirus sp. [2] = test: Ratio of EC50 for major receptor-resistant Human rhinovirus B to EC50 for minor receptor-resistant Human rhinovirus A; format: functional
Human rhinovirus sp. [3] = test: Antirhinoviral activity against major receptor-resistant Human rhinovirus infected in human HeLa cells assessed as inhibition of virus-induced cytopathic effect after 5 days by MTT assay; format: functional, organism-based; conditions: 120 h
Human rhinovirus sp. [4] = test: Antirhinoviral activity against Human rhinovirus B infected in human HeLa cells assessed as inhibition of virus-induced cytopathic effect after 5 days by MTT assay; format: functional, organism-based; conditions: 120 h
Human rhinovirus sp. [5] = test: Antirhinoviral activity against antiviral-resistant Human rhinovirus B infected in human HeLa cells assessed as inhibition of virus-induced cytopathic effect after 5 days by MTT assay; format: functional, organism-based; conditions: 120 h
Human rhinovirus sp. [6] = test: Antirhinoviral activity against antiviral-resistant Human rhinovirus A infected in human HeLa cells assessed as inhibition of virus-induced cytopathic effect after 5 days by MTT assay; format: functional, organism-based; conditions: 120 h
Human rhinovirus sp. [7] = test: Ratio of EC50 for antiviral-resistant Human rhinovirus B to EC50 for antiviral-resistant Human rhinovirus A; format: functional
Human rhinovirus sp. [8] = test: Antirhinoviral activity against minor receptor-resistant Human rhinovirus infected in human HeLa cells assessed as inhibition of virus-induced cytopathic effect after 5 days by MTT assay; format: functional, organism-based; conditions: 120 h
Human rhinovirus sp. [9] = test: Antirhinoviral activity against Human rhinovirus A infected in human HeLa cells assessed as inhibition of virus-induced cytopathic effect after 5 days by MTT assay; format: functional, organism-based; conditions: 120 h
Human rhinovirus sp. [10] = test: Ratio of EC50 for Human rhinovirus B to EC50 for Human rhinovirus A; format: functional
in vivo [11] = conditions: female, Lister hooded, rat, po, 50 mg/kg
Description: Oral bioavailability in female lister hooded rat at 50 mg/kg administered as single dose

in vivo [12] = conditions: male, Lister hooded, rat, plasma, po, 50 mg/kg
Description: AUC in male lister hooded rat at 50 mg/kg, po

in vivo [13] = conditions: male, beagle, dog, plasma, po, 50 mg/kg
Description: AUC in male beagle dog at 50 mg/kg, po

in vivo [14] = conditions: male, beagle, dog, po, 50 mg/kg
Description: Tmax in male beagle dog at 50 mg/kg, po

in vivo [15] = conditions: male, beagle, dog, po, 50 mg/kg; remark: listed apart in the source
Description: Cmax in male beagle dog at 50 mg/kg, po

[16] = Half life in male lister hooded rat at 50 mg/kg, po; conditions: in vivo
in vivo [17] = conditions: female, Lister hooded, rat, po, 50 mg/kg; remark: listed apart in the source
Description: Cmax in female lister hooded rat at 50 mg/kg, po

[18] = AUC (0 to infinity) in human at 400 mg administered as single dose; conditions: plasma
in vivo [19] = conditions: female, Lister hooded, rat, po, 50 mg/kg; remark: listed apart in the source
Description: Tmax in female lister hooded rat at 50 mg/kg, po

[20] = Half life in female lister hooded rat at 50 mg/kg, po; conditions: in vivo
[21] = Half life in male beagle dog at 50 mg/kg, po; conditions: in vivo
in vivo [22] = conditions: male, Lister hooded, rat, po, 50 mg/kg
Description: Tmax in male lister hooded rat at 50 mg/kg, po

in vivo [23] = conditions: male, Lister hooded, rat, po, 50 mg/kg; remark: listed apart in the source
Description: Cmax in male lister hooded rat at 50 mg/kg, po

in vivo [24] = conditions: female, beagle, dog, plasma, po, 50 mg/kg
Description: AUC in female beagle dog at 50 mg/kg, po

in vivo [25] = conditions: female, Lister hooded, rat, plasma, po, 50 mg/kg
Description: AUC in female lister hooded rat at 50 mg/kg, po

[26] = Half life in human at 400 mg administered as single dose; conditions: in vivo
[27] = Tmax in human at 400 mg administered as single dose; conditions: in vivo
in vivo [28] = conditions: female, beagle, dog, po, 50 mg/kg
Description: Tmax in female beagle dog at 50 mg/kg, po

in vivo [29] = conditions: female, beagle, dog, po, 50 mg/kg; remark: listed apart in the source
Description: Cmax in female beagle dog at 50 mg/kg, po

in vivo [30] = conditions: male, Lister hooded, rat, po, 50 mg/kg; remark: listed apart in the source
Description: Oral bioavailability in male lister hooded rat at 50 mg/kg administered as single dose

[31] = Half life in female beagle dog at 50 mg/kg, po; conditions: in vivo
[32] = Cmax in human at 400 mg administered as single dose; conditions: in vivo

Compound: CCc1noc2cc(OCCC3CCN(c4ccc(C)nn4)CC3)ccc12
EC50 (Human rhinovirus sp. [1]): 88 ng/mL (≈ 0.24 µM)
EC50 (rhinovirus A2): 24 ng/mL (≈ 0.0655 µM)

Compound: CCOc1noc2cc(OCCC3CCN(c4ccc(Cl)nn4)CC3)ccc12
EC50 (Human rhinovirus sp. [1]): 19 ng/mL (≈ 0.0472 µM)
EC50 (rhinovirus A2): 3 ng/mL (≈ 0.00745 µM)

Compound: CCCOc1noc2cc(OCCC3CCN(c4ccc(C)nn4)CC3)ccc12
EC50 (Human rhinovirus sp. [1]): 29 ng/mL (≈ 0.0731 µM)
EC50 (rhinovirus A2): 3 ng/mL (≈ 0.00757 µM)

Compound: CCCc1noc2cc(OCCC3CCN(c4ccc(C)nn4)CC3)ccc12
EC50 (Human rhinovirus sp. [1]): 13 ng/mL (≈ 0.0342 µM)
EC50 (rhinovirus A2): 84 ng/mL (≈ 0.221 µM)

Compound: CCOc1nsc2cc(OCCC3CCN(c4ccc(C)nn4)CC3)ccc12
EC50 (Human rhinovirus sp. [1]): 29 ng/mL (≈ 0.0728 µM)
EC50 (rhinovirus A2): 3 ng/mL (≈ 0.00753 µM)

Compound: CCOc1noc2cc(OCCCC3CCN(c4ccc(Cl)nn4)CC3)ccc12
EC50 (Human rhinovirus sp. [1]): 9 ng/mL (≈ 0.0216 µM)
EC50 (rhinovirus A2): 3 ng/mL (≈ 0.0072 µM)

Compound: CCOC(=O)c1ccc(OCCC2CCN(c3ccc(C)nn3)CC2)cc1 [PIRODAVIR]
Ratio EC50 (Human rhinovirus sp. [2]): 2.4
EC50 (Human rhinovirus sp. [3]): 5.6 ng/mL (≈ 0.0152 µM)
EC50 (Human rhinovirus sp. [4]): 11.1 ng/mL (≈ 0.03 µM)
EC50 (Human rhinovirus sp. [5]): 2.6 ng/mL (≈ 0.00704 µM)
EC50 (Human rhinovirus sp. [6]): 20.6 ng/mL (≈ 0.0558 µM)
EC50 (Human rhinovirus sp. [1]): 4 ng/mL (≈ 0.0108 µM)
EC50 (rhinovirus A2): 3 ng/mL (≈ 0.00812 µM)
Ratio EC50 (Human rhinovirus sp. [7]): 8.1
EC50 (Human rhinovirus sp. [8]): 2.3 ng/mL (≈ 0.00623 µM)
EC50 (Human rhinovirus sp. [9]): 4 ng/mL (≈ 0.0108 µM)
Ratio EC50 (Human rhinovirus sp. [10]): 2.8

Compound: Cc1cc(CCCOc2c(C)cc(-c3noc(C(F)(F)F)n3)cc2C)on1 [PLECONARIL]
Ratio EC50 (Human rhinovirus sp. [2]): 2.1
EC50 (Human rhinovirus sp. [3]): 49.2 ng/mL (≈ 0.129 µM)
EC50 (Human rhinovirus sp. [4]): 224 ng/mL (≈ 0.588 µM)
EC50 (Human rhinovirus sp. [5]): 33.8 ng/mL (≈ 0.0886 µM)
EC50 (Human rhinovirus sp. [6]): 388 ng/mL (≈ 1.02 µM)
Ratio EC50 (Human rhinovirus sp. [7]): 11.5
EC50 (Human rhinovirus sp. [8]): 23.2 ng/mL (≈ 0.0608 µM)
EC50 (Human rhinovirus sp. [9]): 37.4 ng/mL (≈ 0.0981 µM)
Ratio EC50 (Human rhinovirus sp. [10]): 6

Compound: CCOC(=O)/C=C/[C@H](C[C@@H]1CCNC1=O)NC(=O)[C@@H](CC(=O)[C@@H](NC(=O)c1cc(C)on1)C(C)C)Cc1ccc(F)cc1 [RUPINTRIVIR]
Ratio EC50 (Human rhinovirus sp. [2]): 2
EC50 (Human rhinovirus sp. [3]): 1.5 ng/mL (≈ 0.00251 µM)
EC50 (Human rhinovirus sp. [4]): 1.2 ng/mL (≈ 0.002 µM)
EC50 (Human rhinovirus sp. [5]): 2 ng/mL (≈ 0.00334 µM)
EC50 (Human rhinovirus sp. [6]): 1.2 ng/mL (≈ 0.002 µM)
Ratio EC50 (Human rhinovirus sp. [7]): 1.7
EC50 (Human rhinovirus sp. [8]): 3 ng/mL (≈ 0.00501 µM)
EC50 (Human rhinovirus sp. [9]): 2 ng/mL (≈ 0.00334 µM)
Ratio EC50 (Human rhinovirus sp. [10]): 1.7

bioavailability (in vivo [11]): 95%
AUC (in vivo [12]): 483 µg·h/mL
AUC (in vivo [13]): 202 µg·h/mL
Tmax (in vivo [14]): 14.7 h
Cmax (in vivo [15]): 11000 ng/mL
half-life [16]: 51.6 h
Cmax (in vivo [17]): 17700 ng/mL
AUC(0-inf) [18]: 13.8 µg·h/mL
Tmax (in vivo [19]): 11.2 h
half-life [20]: 46.4 h
half-life [21]: 18.3 h
Tmax (in vivo [22]): 16 h
Cmax (in vivo [23]): 22500 ng/mL
AUC (in vivo [24]): 121 µg·h/mL
AUC (in vivo [25]): 489 µg·h/mL
half-life [26]: 11.8 h
Tmax [27]: 1.03 h
Tmax (in vivo [28]): 7.7 h
Cmax (in vivo [29]): 6100 ng/mL
bioavailability (in vivo [30]): 94%
half-life [31]: 15.9 h
Cmax [32]: 1890 ng/mL
Compound: CCOc1noc2cc(OCCC3CCN(c4ccc(C)nn4)CC3)ccc12 [VAPENDAVIR]
EC50 (rhinovirus A2): 1 ng/mL (≈ 0.00261 µM)
